Reference: patent US4477443A, “Tylosin derivatives, their preparation and pharmaceutical compositions containing them” (Zaidan Hojin Biselbutsu Kagaku Kenkyu Kai (Microbial …, priority 1981, dated 1984)
≈ marks a conversion by molar mass, not a printed value. Where two headings read alike, the source gives them in different places.

How the values were obtained:
Format in all cases: cell-based
B. subtilis ATCC 6633 = test: antimicrobial activity (MIC), Table II; settings: Bacillus subtilis, ATCC6633; B. subtilis ATCC 6633; read-out: MIC
[1] = system: Staph. epidermidis IID 866; test: antimicrobial activity (MIC), Table II; settings: Staphylococcus epidermidis, IID866
Staph. aureus ATCC 6538P = test: antimicrobial activity (MIC), Table II; settings: Staphylococcus aureus, ATCC6538P; Staph. aureus ATCC 6538P; read-out: MIC
Staph. aureus 226 = test: antimicrobial activity (MIC), Table II; settings: Staphylococcus aureus; Staph. aureus 226; read-out: MIC
B. cereus = test: antimicrobial activity (MIC), Table II; settings: Bacillus cereus; B. cereus; read-out: MIC
Staph. aureus KC-11 = test: antimicrobial activity (MIC), Table II; settings: Staphylococcus aureus, KC11; Staph. aureus KC-11; read-out: MIC
B. subtilis NRRL B-558 = test: antimicrobial activity (MIC), Table I; settings: Bacillus subtilis, NRRLB558
E. coli NIHJ = test: antimicrobial activity (MIC), Table I; settings: Escherichia coli
Kleb. pneumoniae PCI 602 = test: antimicrobial activity (MIC), Table I; settings: Klebsiella pneumoniae, PCI602
Sarcina lutea PCI 1001 = test: antimicrobial activity (MIC), Table I; settings: Micrococcus luteus, PCI1001
Staph. aureus 193 = test: antimicrobial activity (MIC), Table I; settings: Staphylococcus aureus
Coryn. bovis 1810 = test: antimicrobial activity (MIC), Table I; settings: Corynebacterium bovis
E. coli K-12 R-5 = test: antimicrobial activity (MIC), Table I; settings: Escherichia coli, K12R5
Staph. aureus 209 P = test: antimicrobial activity (MIC), Table I; settings: Staphylococcus aureus
[2] = system: Shigella dysenteriae JS 11910; test: antimicrobial activity (MIC), Table I; settings: JS11910
Sal. enteritidis 1891 = test: antimicrobial activity (MIC), Table I; settings: Salmonella enterica
E. coli K-12 = test: antimicrobial activity (MIC), Table I; settings: Escherichia coli, K12
Staph. aureus MS 9861 = test: antimicrobial activity (MIC), Table I; settings: Staphylococcus aureus, MS9861
[3] = B. subtilis NRRL B-558, read-out: MIC
[4] = Kleb. pneumoniae PCI 602, read-out: MIC
[5] = Sarcina lutea PCI 1001, read-out: MIC
[6] = Staph. aureus 193, read-out: MIC
[7] = Coryn. bovis 1810, read-out: MIC
[8] = E. coli K-12 R-5, read-out: MIC
[9] = Staph. aureus 209 P, read-out: MIC
[10] = Sal. enteritidis 1891, read-out: MIC
[11] = Staph. aureus MS 9861, read-out: MIC

CCC1OC(=O)CC(O)C(C)C(OC2OC(C)C(O)C(N(C)C)C2O)C(CC=O)CC(C)C(=O)C=CC(C)=CC1CN(CC)C(=O)c1ccco1 (stereo not drawn) [Example 43, 23-deoxy-23-N-(2-furoyl)ethylaminomycaminosyl tylonolide]
MIC (B. subtilis ATCC 6633): 0.78 µg/mL (≈ 1.09 µM)
MIC [1]: 0.78 µg/mL (≈ 1.09 µM)
MIC (Staph. aureus ATCC 6538P): 0.78 µg/mL (≈ 1.09 µM)
MIC (Staph. aureus 226): 0.78 µg/mL (≈ 1.09 µM)
MIC (B. cereus): 0.39 µg/mL (≈ 0.543 µM)
MIC (Staph. aureus KC-11): 0.78 µg/mL (≈ 1.09 µM)

CCC1OC(=O)CC(O)C(C)C(OC2OC(C)CC(N(C)C)C2O)C(CC=O)CC(C)C(=O)C=CC(C)=CC1CN(CC)C(=O)c1ccco1 (stereo not drawn) [Example 45, 23,4'-dideoxy-23-N-(2-furoyl)ethylaminomycaminosyl tylonolide]
MIC (B. subtilis ATCC 6633): 0.39 µg/mL (≈ 0.555 µM)
MIC [1]: 0.39 µg/mL (≈ 0.555 µM)
MIC (Staph. aureus ATCC 6538P): 0.78 µg/mL (≈ 1.11 µM)
MIC (Staph. aureus 226): 0.78 µg/mL (≈ 1.11 µM)
MIC (B. cereus): 0.39 µg/mL (≈ 0.555 µM)
MIC (Staph. aureus KC-11): 0.78 µg/mL (≈ 1.11 µM)

CCC1OC(=O)CC(O)C(C)C(OC2OC(C)CC(N(C)C)C2O)C(CC=O)CC(C)C(=O)C=CC(C)=CC1CN(CC)C(=O)c1cccnc1 (stereo not drawn) [Example 46, 23,4'-dideoxy-23-N-nicotinoylethylaminomycaminosyl tylonolide]
MIC (B. subtilis ATCC 6633): 1.56 µg/mL (≈ 2.19 µM)
MIC [1]: 0.78 µg/mL (≈ 1.09 µM)
MIC (Staph. aureus ATCC 6538P): 1.56 µg/mL (≈ 2.19 µM)
MIC (Staph. aureus 226): 1.56 µg/mL (≈ 2.19 µM)
MIC (B. cereus): 0.39 µg/mL (≈ 0.546 µM)
MIC (Staph. aureus KC-11): 1.56 µg/mL (≈ 2.19 µM)

CCC1OC(=O)CC(O)C(C)C(OC2OC(C)CC(N(C)C)C2O)C(CC=O)CC(C)C(=O)C=CC(C)=CC1CNC(=O)c1ccccc1 (stereo not drawn) [Example 76, 23-Benzoylamino-23,4'-dideoxymycaminosyl tylonolide]
MIC (B. subtilis NRRL B-558; [3]): 0.78 µg/mL (≈ 1.14 µM)
MIC (E. coli NIHJ; E. coli NIHJ, read-out: MIC): 3.12 µg/mL (≈ 4.56 µM)
MIC (Kleb. pneumoniae PCI 602; [4]): 3.12 µg/mL (≈ 4.56 µM)
MIC (Sarcina lutea PCI 1001; [5]): < 0.2 µg/mL
MIC (Staph. aureus 193; [6]): 0.39 µg/mL (≈ 0.569 µM)
MIC (Coryn. bovis 1810; [7]): < 0.2 µg/mL
MIC (E. coli K-12 R-5; [8]): 6.25 µg/mL (≈ 9.13 µM)
MIC (Staph. aureus 209 P; [9]): 0.39 µg/mL (≈ 0.569 µM)
MIC [2]: 1.56 µg/mL (≈ 2.28 µM)
MIC (Sal. enteritidis 1891; [10]): 3.12 µg/mL (≈ 4.56 µM)
MIC (E. coli K-12; E. coli K-12, read-out: MIC): 6.25 µg/mL (≈ 9.13 µM)
MIC (Staph. aureus MS 9861; [11]): 0.78 µg/mL (≈ 1.14 µM)

CCOC(=O)NCC1C=C(C)C=CC(=O)C(C)CC(CC=O)C(OC2OC(C)CC(N(C)C)C2O)C(C)C(O)CC(=O)OC1CC (stereo not drawn) [Example 78, 23,4'-Dideoxy-23-ethoxycarbonylaminomycaminosyl tylonolide]
MIC (B. subtilis NRRL B-558; [3]): 0.39 µg/mL (≈ 0.597 µM)
MIC (E. coli NIHJ; E. coli NIHJ, read-out: MIC): 3.12 µg/mL (≈ 4.78 µM)
MIC (Kleb. pneumoniae PCI 602; [4]): 3.12 µg/mL (≈ 4.78 µM)
MIC (Sarcina lutea PCI 1001; [5]): < 0.2 µg/mL
MIC (Staph. aureus 193; [6]): < 0.2 µg/mL
MIC (Coryn. bovis 1810; [7]): < 0.2 µg/mL
MIC (E. coli K-12 R-5; [8]): 6.25 µg/mL (≈ 9.57 µM)
MIC (Staph. aureus 209 P; [9]): < 0.2 µg/mL
MIC [2]: 1.56 µg/mL (≈ 2.39 µM)
MIC (Sal. enteritidis 1891; [10]): 3.12 µg/mL (≈ 4.78 µM)
MIC (E. coli K-12; E. coli K-12, read-out: MIC): 12.5 µg/mL (≈ 19.1 µM)
MIC (Staph. aureus MS 9861; [11]): 0.39 µg/mL (≈ 0.597 µM)

CCC1OC(=O)CC(O)C(C)C(OC2OC(C)CC(N(C)C)C2O)C(CC=O)CC(C)C(=O)C=CC(C)=CC1CNC(=O)Oc1ccccc1 (stereo not drawn) [Example 80, 23,4'-Dideoxy-23-phenoxycarbonylaminomycaminosyl tylonolide]
MIC (B. subtilis NRRL B-558): 0.39 µg/mL (≈ 0.556 µM)
MIC (E. coli NIHJ): 3.12 µg/mL (≈ 4.45 µM)
MIC (Kleb. pneumoniae PCI 602): 1.56 µg/mL (≈ 2.23 µM)
MIC (Sarcina lutea PCI 1001): < 0.2 µg/mL
MIC (Staph. aureus 193; 193): < 0.2 µg/mL
MIC (Coryn. bovis 1810; 1810): < 0.2 µg/mL
MIC (E. coli K-12 R-5): 6.25 µg/mL (≈ 8.92 µM)
MIC (Staph. aureus 209 P; 209P): < 0.2 µg/mL
MIC [2]: 0.78 µg/mL (≈ 1.11 µM)
MIC (Sal. enteritidis 1891; ENTERITIDIS): 1.56 µg/mL (≈ 2.23 µM)
MIC (E. coli K-12): 6.25 µg/mL (≈ 8.92 µM)
MIC (Staph. aureus MS 9861): < 0.2 µg/mL

CCC1OC(=O)CC(O)C(C)C(OC2OC(C)CC(N(C)C)C2O)C(CC=O)CC(C)C(=O)C=CC(C)=CC1CN(CC)C(=O)OC (stereo not drawn) [Example 83, 23,4'-Dideoxy-23-N-ethylmethoxycarbonylaminomycaminosyl tylonolide]
MIC (B. subtilis NRRL B-558; [3]): < 0.2 µg/mL
MIC (E. coli NIHJ; E. coli NIHJ, read-out: MIC): 6.25 µg/mL (≈ 9.37 µM)
MIC (Kleb. pneumoniae PCI 602; [4]): 12.5 µg/mL (≈ 18.7 µM)
MIC (Sarcina lutea PCI 1001; [5]): < 0.2 µg/mL
MIC (Staph. aureus 193; [6]): < 0.2 µg/mL
MIC (Coryn. bovis 1810; [7]): < 0.2 µg/mL
MIC (E. coli K-12 R-5; [8]): 12.5 µg/mL (≈ 18.7 µM)
MIC (Staph. aureus 209 P; [9]): < 0.2 µg/mL
MIC [2]: 1.56 µg/mL (≈ 2.34 µM)
MIC (Sal. enteritidis 1891; [10]): 6.25 µg/mL (≈ 9.37 µM)
MIC (E. coli K-12; E. coli K-12, read-out: MIC): 12.5 µg/mL (≈ 18.7 µM)
MIC (Staph. aureus MS 9861; [11]): 0.39 µg/mL (≈ 0.585 µM)

CCC1OC(=O)CC(O)C(C)C(OC2OC(C)CC(N(C)C)C2O)C(CC=O)CC(C)C(=O)C=CC(C)=CC1CN(CC)C(=O)Oc1ccccc1 (stereo not drawn) [Example 85, 23,4'-Dideoxy-23-N-ethylphenoxycarbonylaminomycaminosyl tylonolide]
MIC (B. subtilis NRRL B-558): < 0.2 µg/mL
MIC (E. coli NIHJ): 12.5 µg/mL (≈ 17.1 µM)
MIC (Kleb. pneumoniae PCI 602): 3.12 µg/mL (≈ 4.28 µM)
MIC (Sarcina lutea PCI 1001): < 0.2 µg/mL
MIC (Staph. aureus 193; 193): 0.39 µg/mL (≈ 0.535 µM)
MIC (Coryn. bovis 1810; 1810): < 0.2 µg/mL
MIC (E. coli K-12 R-5): 12.5 µg/mL (≈ 17.1 µM)
MIC (Staph. aureus 209 P; 209P): < 0.2 µg/mL
MIC [2]: 0.78 µg/mL (≈ 1.07 µM)
MIC (Sal. enteritidis 1891; ENTERITIDIS): 12.5 µg/mL (≈ 17.1 µM)
MIC (E. coli K-12): 12.5 µg/mL (≈ 17.1 µM)
MIC (Staph. aureus MS 9861): 0.39 µg/mL (≈ 0.535 µM)
